Measurements published in patent publication US7662832B2, “Pyrrolo[2,3-c]pyridine derivatives and processes for the preparation thereof” (priority 2004, dated 2010).
Structures can show the parent of a compound that is named as a salt.

target: Proton Pump (H^+/K^+-ATPase) (Sus scrofa, UniProt P19156); experiment: Inhibitory effects on proton pump (H^+/K^+-ATPase) activity; format: biochemical; details: hog gastric vesicles; K^+ stimulated H^+/K^+-ATPase activity; 30 minutes at 37° C.
Sequence (P19156 2-1034 limits assumed): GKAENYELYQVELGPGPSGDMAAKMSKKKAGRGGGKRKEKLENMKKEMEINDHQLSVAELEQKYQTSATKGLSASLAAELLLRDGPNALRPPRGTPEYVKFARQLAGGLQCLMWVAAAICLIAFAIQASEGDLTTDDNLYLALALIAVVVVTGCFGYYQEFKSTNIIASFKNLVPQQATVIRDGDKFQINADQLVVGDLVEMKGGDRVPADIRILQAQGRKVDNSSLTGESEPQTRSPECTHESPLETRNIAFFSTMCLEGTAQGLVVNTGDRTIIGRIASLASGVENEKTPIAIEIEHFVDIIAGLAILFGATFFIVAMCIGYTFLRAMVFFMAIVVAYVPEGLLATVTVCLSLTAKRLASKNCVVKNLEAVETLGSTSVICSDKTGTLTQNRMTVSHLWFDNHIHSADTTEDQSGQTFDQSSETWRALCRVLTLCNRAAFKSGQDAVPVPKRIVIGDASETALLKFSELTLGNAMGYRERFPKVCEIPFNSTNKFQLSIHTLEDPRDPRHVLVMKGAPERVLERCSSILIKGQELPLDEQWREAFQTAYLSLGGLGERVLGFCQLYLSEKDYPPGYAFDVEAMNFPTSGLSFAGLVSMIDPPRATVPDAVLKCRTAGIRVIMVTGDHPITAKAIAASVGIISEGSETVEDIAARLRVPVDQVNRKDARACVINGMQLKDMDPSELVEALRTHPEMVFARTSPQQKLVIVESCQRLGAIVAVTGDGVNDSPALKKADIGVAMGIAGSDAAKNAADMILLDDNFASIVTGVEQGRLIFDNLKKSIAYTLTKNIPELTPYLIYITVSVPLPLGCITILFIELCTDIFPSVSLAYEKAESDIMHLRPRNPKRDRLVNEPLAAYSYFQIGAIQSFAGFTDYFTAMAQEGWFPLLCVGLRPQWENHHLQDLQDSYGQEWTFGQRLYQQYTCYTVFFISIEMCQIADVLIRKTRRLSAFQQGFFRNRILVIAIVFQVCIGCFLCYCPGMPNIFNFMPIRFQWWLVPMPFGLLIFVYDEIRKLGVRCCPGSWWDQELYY
Sequence (P18434 whole entry partner): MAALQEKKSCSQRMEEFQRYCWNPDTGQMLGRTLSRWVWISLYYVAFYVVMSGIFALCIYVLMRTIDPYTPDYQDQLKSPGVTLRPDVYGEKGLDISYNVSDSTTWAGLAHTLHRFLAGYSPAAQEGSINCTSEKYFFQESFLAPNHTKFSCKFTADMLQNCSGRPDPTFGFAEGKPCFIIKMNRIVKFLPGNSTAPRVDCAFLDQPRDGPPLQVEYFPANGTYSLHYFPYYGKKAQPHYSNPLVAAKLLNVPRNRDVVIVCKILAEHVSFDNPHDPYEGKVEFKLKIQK

| Structure (SMILES) | IC50 |
| --- | --- |
| Cc1ccc(Cn2c(C)c(C)c3ccnc(C=Cc4ccccc4)c32)cc1 [Example 417, 2,3-dimethyl-1-(4-methylbenzyl)-7-styryl-1H-pyrrolo[2,3-c]pyridine hydrochloride] | 370 nM |
| CCN1CCN(C(=O)c2cc3c(C)c(C)n(CC)c3c(N3CCc4ccccc4C3)n2)CC1 [Example 826, [7-(3,4-dihydro-1H-isoquinolin-2-yl)-1-ethyl-2,3-dimethyl-1H-pyrrolo[2,3-c]pyridin-5-yl]-(4-ethylpiperazin-1-yl)-methanone hydrochloride] | 16 nM |
| CSc1ccc(-c2nccc3c(C)c(C)[nH]c23)cc1 [Example 262, 2,3-dimethyl-7-(4-methylsulfanylphenyl)-1H-pyrrolo[2,3-c]pyridine] | 220 nM |
| Cc1ccc(-c2nccc3c(C)c(C)n(Cc4ccc(Cl)c(Cl)c4)c23)cc1 [Example 296, 1-(3,4-dichlorobenzyl)-2,3-dimethyl-7-(p-tolyl)-1H-pyrrolo[2,3-c]pyridine hydrochloride] | 5080 nM |
| Cc1c(C)n(CC2CCC2)c2c(N3CCc4ccccc4C3)nc(C(=O)N3CCN(C)CC3)cc12 [Example 830, [1-cyclobutylmethyl-7-(3,4-dihydro-1H-isoquinolin-2-yl)-2,3-dimethyl-1H-pyrrolo[2,3-c]pyridin-5-yl]-(4-methylpiperazin-1-yl)-methanone hydrochloride] | 44 nM |
| Cc1[nH]c2c(N3CCc4ccccc4C3C)nccc2c1C (centres unmarked) [Example 560, 2-(2,3-dimethyl-1H-pyrrolo[2,3-c]pyridin-7-yl)-1-methyl-1,2,3,4-tetrahydroisoquinoline sodium] | 17 nM |
| Cc1c(C)n(CC2CC2)c2c(NCc3ccc(Cl)cc3)nccc12 [Example 227, 7-(4-chlorobenzylamino)-1-cyclopropylmethyl-2,3-dimethyl-1H-pyrrolo[2,3-c]pyridine hydrochloride] | 73 nM |
| CCC1c2ccccc2CCN1c1nccc2c(C)c(C)n(Cc3csc(C)n3)c12 (centres unmarked) [Example 586, 1-ethyl-2-[2,3-dimethyl-1-(2-methylthiazol-4-ylmethyl)-1H-pyrrolo[2,3-c]pyridin-7-yl]-1,2,3,4-tetrahydroisoquinoline hydrochloride] | 330 nM |
| Cc1c(C)n(Cc2ccccc2)c2c(NCc3ccc(F)cc3)nc(C(=O)N3CCCCC3)cc12 [Example 908, [1-benzyl-7-(4-fluorobenzylamino)-2,3-dimethyl-1H-pyrrolo[2,3-c]pyridin-5-yl]-(piperidin-1-yl)-methanone hydrochloride] | 384 nM |
| C=Cc1ccc(-c2nccc3c(C)c(C)n(Cc4ccc5ccccc5c4)c23)cc1 [Example 257, 2,3-dimethyl-1-(naphthalen-2-ylmethyl)-7-(4-vinylphenyl)-1H-pyrrolo[2,3-c]pyridine hydrochloride] | 270 nM |
| CCCn1c(C)c(C)c2cc(C(=O)N3CCCCC3)nc(N3CCc4ccccc4C3)c21 [Example 801, [7-(3,4-dihydro-1H-isoquinolin-2-yl)-2,3-dimethyl-1-propyl-1H-pyrrolo[2,3-c]pyridin-5-yl]-(piperidin-1-yl)-methanone hydrochloride] | 158 nM |
| Cc1nc(Cn2c(C)c(C)c3ccnc(N4CCc5ccc(F)cc5C4C)c32)cs1 (centres unmarked) [Example 551, 2-[2,3-dimethyl-1-(2-methylthiazol-4-ylmethyl)-1H-pyrrolo[2,3-c]pyridin-7-yl]-7-fluoro-1-methyl-1,2,3,4-tetrahydroisoquinoline hydrochloride] | 320 nM |
| Cc1c(C)n(Cc2ccc(F)cc2)c2c(N(C)Cc3ccc(F)cc3)nccc12 [Example 155, 1-(4-fluorobenzyl)-7-[N-(4-fluorobenzyl)-N-methyl]amino-2,3-dimethyl-1H-pyrrolo[2,3-c]pyridine hydrochloride] | 400 nM |
| COCCn1c(C)c(C)c2ccnc(NCc3ccccc3C)c21 [Example 213, 1-(2-methoxyethyl)-2,3-dimethyl-7-(2-methylbenzylamino)-1H-pyrrolo[2,3-c]pyridine hydrochloride] | 310 nM |
| CCn1c(C)c(C)c2ccnc(NCc3ccc(F)cc3)c21 [Example 223, 1-ethyl-7-(4-fluorobenzylamino)-2,3-dimethyl-1H-pyrrolo[2,3-c]pyridine hydrochloride] | 440 nM |
| Cc1nc(Cn2c(C)c(C)c3ccnc(N4CCc5ccc(Cl)cc5C4C)c32)cs1 (centres unmarked) [Example 538, 7-chloro-2-[2,3-dimethyl-1-(2-methylthiazol-4-ylmethyl)-1H-pyrrolo[2,3-c]pyridin-7-yl]-1-methyl-1,2,3,4-tetrahydroisoquinoline hydrochloride] | 244 nM |
| Cc1c(C)n(CC2CC2)c2c(CN(C)c3ccc(F)cc3)nccc12 [Example 112, N-(1-cyclopropylmethyl-2,3-dimethyl-1H-pyrrolo[2,3-c]pyridin-7-ylmethyl)-N-(4-fluorophenyl)-methylamine hydrochloride] | 151 nM |
| COc1cccc(Cn2c(C)c(C)c3ccnc(-c4ccc(C)cc4)c32)c1 [Example 278, 1-(3-methoxybenzyl)-2,3-dimethyl-7-(p-tolyl)-1H-pyrrolo[2,3-c]pyridine hydrochloride] | 390 nM |
| C=CCn1c(C)c(C)c2ccnc(N3CCc4ccccc4C3)c21 [Example 489, 1-allyl-7-(1,2,3,4-tetrahydroisoquinolin-2-yl)-2,3-dimethyl-1H-pyrrolo[2,3-c]pyridine p-toluenesulfonate] | 3 nM |

More lines, now with the values ahead:

| IC50 | Structure (SMILES) |
| --- | --- |
| 69 nM | C#CCn1c(C)c(C)c2ccnc(N3CCc4ccccc4C3)c21 [Example 506, 1-(prop-2-ynyl)-7-(1,2,3,4-tetrahydroisoquinolin-2-yl)-2,3-dimethyl-1H-pyrrolo[2,3-c]pyridine hydrochloride] |
| 200 nM | Cc1cccc(Cn2c(C)c(C)c3ccnc(N4CCc5ccccc5C4)c32)c1 [Example 515, 1-(3-methylbenzyl)-7-(1,2,3,4-tetrahydroisoquinolin-2-yl)-2,3-dimethyl-1H-pyrrolo[2,3-c]pyridine hydrochloride] |
| 110 nM | C=Cc1ccc(-c2nccc3c(C)c(C)n(Cc4ccccc4)c23)cc1 [Example 246, 1-benzyl-2,3-dimethyl-7-(4-vinylphenyl)-1H-pyrrolo[2,3-c]pyridine hydrochloride] |
| 216 nM | Cc1c(C)n(Cc2cccc(F)c2)c2c(N3CCc4ccccc4C3)nc(CC#N)cc12 [Example 884, [7-(3,4-dihydro-1H-isoquinolin-2-yl)-1-(3-fluorobenzyl)-2,3-dimethyl-1H-pyrrolo[2,3-c]pyridin-5-yl]-acetonitrile hydrochloride] |
| 22 nM | C=CCn1c(C)c(C)c2ccnc(N3CCc4ccc(F)cc4C3C)c21 (centres unmarked) [Example 544, 2-(1-allyl-2,3-dimethyl-1H-pyrrolo[2,3-c]pyridin-7-yl)-7-fluoro-1-methyl-1,2,3,4-tetrahydroisoquinoline hydrochloride] |
| 59 nM | CCn1c(C)c(C)c2cc(C(=O)N3CC=CCC3)nc(N3CCc4ccccc4C3)c21 [Example 809, [7-(3,4-dihydro-1H-isoquinolin-2-yl)-1-ethyl-2,3-dimethyl-1H-pyrrolo[2,3-c]pyridin-5-yl]-(3,6-dihydro-2H-pyridin-1-yl)-methanone hydrochloride] |
| 103 nM | Cc1c(C)n(Cc2ccccc2)c2c(N3CCc4ccccc4C3)nc(C(=O)N3CCOCC3)cc12 [Example 769, [1-benzyl-7-(3,4-dihydro-1H-isoquinolin-2-yl)-2,3-dimethyl-1H-pyrrolo[2,3-c]pyridin-5-yl]-(morpholin-4-yl)-methanone hydrochloride] |
| 109 nM | Cc1c(C)n(Cc2cccc(Cl)c2)c2c(N3CCc4ccccc4C3)nc(C=O)cc12 [Example 863, 1-(3-chlorobenzyl)-7-(3,4-dihydro-1H-isoquinolin-2-yl)-2,3-dimethyl-1H-pyrrolo[2,3-c]pyridin-5-carbaldehyde] |
| 375 nM | Cc1cc2ccnc(N3CCc4ccccc4C3)c2n1Cc1cccc(F)c1 [Example 613, 2-[1-(3-fluorobenzyl)-2-methyl-1H-pyrrolo[2,3-c]pyridin-7-yl]-1,2,3,4-tetrahydroisoquinoline hydrochloride] |
| 169 nM | Cc1c(C)n(Cc2cccc(F)c2)c2c(N3CCc4ccccc4C3)nc(C(=O)n3ccnc3)cc12 [Example 840, [7-(3,4-dihydro-1H-isoquinolin-2-yl)-1-(3-fluorobenzyl)-2,3-dimethyl-1H-pyrrolo[2,3-c]pyridin-5-yl]-(imidazol-1-yl)-methanone hydrochloride] |
| 30 nM | C=CCn1c(C)c(C)c2cc(C(=O)NC)nc(N3CCc4ccccc4C3)c21 [Example 757, 1-allyl-7-(3,4-dihydro-1H-isoquinolin-2-yl)-2,3-dimethyl-N-methyl-1H-pyrrolo[2,3-c]pyridin-5-carboxamide hydrochloride] |
| 39 nM | CCNCc1cc2c(C)c(C)n(Cc3cccc(F)c3)c2c(N2CCc3ccccc3C2)n1 [Example 868, N-[7-(3,4-dihydro-1H-isoquinolin-2-yl)-1-(3-fluorobenzyl)-2,3-dimethyl-1H-pyrrolo[2,3-c]pyridin-5-ylmethyl]-ethylamine hydrochloride] |
| 217 nM | Cc1c(C)n(Cc2cccc(F)c2)c2c(N3CCc4ccccc4C3)nc(CF)cc12 [Example 885, 2-[1-(3-fluorobenzyl)-5-fluoromethyl-2,3-dimethyl-1H-pyrrolo[2,3-c]pyridin-7-yl]-1,2,3,4-tetrahydroisoquinoline hydrochloride] |
| 22 nM | C=CCn1c(C)c(C)c2cc(C(=O)O)nc(N3CCc4ccccc4C3)c21 [Example 732, 1-allyl-7-(3,4-dihydro-1H-isoquinolin-2-yl)-2,3-dimethyl-1H-pyrrolo[2,3-c]pyridin-5-carboxylic acid] |
| 298 nM | Cc1c(C)n(Cc2cccc(Cl)c2)c2c(N3CCc4ccccc4C3)nc(C(N)=O)cc12 [Example 750, 1-(3-chlorobenzyl)-7-(3,4-dihydro-1H-isoquinolin-2-yl)-2,3-dimethyl-1H-pyrrolo[2,3-c]pyridin-5-carboxamide] |
| 33 nM | CCN1CCN(C(=O)c2cc3c(C)c(C)n(Cc4cccc(OC)c4)c3c(N3CCc4ccccc4C3)n2)CC1 [Example 824, [7-(3,4-dihydro-1H-isoquinolin-2-yl)-1-(3-methoxybenzyl)-2,3-dimethyl-1H-pyrrolo[2,3-c]pyridin-5-yl]-(4-ethylpiperazin-1-yl)-methanone hydrochloride] |
